According to article PMC3939009, “Thrombin inhibitory activity of some polyphenolic compounds” (Medicinal Chemistry Research, 2013):

Molecular target: human thrombin (Homo sapiens, UniProt P00734)
Assay: Amidolytic activity of thrombin (hydrolysis of chromogenic substrate D-Phe-Pip-Arg-pNA)
Format: biochemical
Set-up: Thrombin, also known as an active plasma coagulation factor II; purchased Sigma-Aldrich Chemical Co. (St. Louis, MO, USA) T7009; host or cells: purified from human plasma
Details: at 375 μM substrate concentration; compounds 0.1–1,000 μM, preincubation 10 min 37 °C; read-out: IC50, amidolytic activity of human thrombin
Protocol: All tested compounds were dissolved in 50 % DMSO to the initial concentration of 10 mM; other solutions of compounds were also prepared in 50 % DMSO (prepared in 50 mM TBS, pH 7.4). The final concentration of DMSO in thrombin samples was 5 %. To prepare thrombin control samples, the same volume of solvent (50 % DMSO prepared in 50 mM TBS, pH 7.4) was added as in the case of the compound volume and warmed for 10 min to 37 °C.
To each reaction well, 40 μl of 3 mM chromogenic substrate was added. To initiate the chromogenic reaction, 280 μl of control thrombin (without tested compounds) or thrombin after preincubation with a polyphenolic compound to every reaction well in the same moment was added. The absorbance value was monitored every 12 s for 10 min. The maximal velocity of the reaction (V max, Δm OD/min) for each absorbance curve was determined. IC50 value (parameter) for every polyphenolic compound from inhibition curves was estimated.

O=c1c(O)c(-c2ccc(O)c(O)c2)oc2cc(O)cc(O)c12 [Quercetin, quercetin]
IC50: 1500 nM
